These results are taken from patent US7326721B2 (Hypnion, Inc., priority 2003, dated 2008).

In data set [1] the target is Glutamate, NMDA, Glycine (Stry-insens Site) (Homo sapiens, UniProt Q05586). Briefly: Table 12 panel: Glutamate, NMDA, Glycine. The note with it: 1.0E−6, average N=2, read-out: percentage inhibition of specific binding. The text has this:
(§1) The percentage inhibition (average; N=2) for these receptors is shown below in Table 12.
(§2) Values in Table 12 are expressed as percentage inhibition of specific binding, and these values represent the average of replicate tubes at each of the concentrations tested.

Another data set concerns Serotonin, Non-selective. Briefly: Table 12 panel: Serotonin, Non-selective. The class given is binding. The following applies: 1.0E−6, average N=2.
Excerpt: as §1, §2

For a further data set, the target named is Angiotensin II, AT2 (Homo sapiens, UniProt P50052). The data set can be described thus: Table 12 panel: Angiotensin II, AT2. The note with it: 1.0E−6, average N=2, read-out: percentage inhibition of specific binding.
Chain of Angiotensin II, AT2 (P50052 whole entry): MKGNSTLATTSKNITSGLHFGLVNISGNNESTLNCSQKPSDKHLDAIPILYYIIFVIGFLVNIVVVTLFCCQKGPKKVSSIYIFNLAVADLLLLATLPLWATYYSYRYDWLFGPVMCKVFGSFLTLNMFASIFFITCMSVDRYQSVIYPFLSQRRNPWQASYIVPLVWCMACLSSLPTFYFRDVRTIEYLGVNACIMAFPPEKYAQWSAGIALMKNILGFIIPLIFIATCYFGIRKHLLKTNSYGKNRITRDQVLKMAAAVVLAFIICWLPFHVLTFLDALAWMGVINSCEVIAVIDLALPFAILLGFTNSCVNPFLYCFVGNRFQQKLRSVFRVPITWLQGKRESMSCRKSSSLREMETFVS
Excerpt: as §1, §2

The target of another data set is Calcium Channel, Type N (Homo sapiens, UniProt Q00975). Briefly: Table 12 panel: Calcium Channel, Type N. The following applies: 1.0E−6, average N=2, read-out: percentage inhibition of specific binding.
Chain of Calcium Channel, Type N (Q00975 whole entry): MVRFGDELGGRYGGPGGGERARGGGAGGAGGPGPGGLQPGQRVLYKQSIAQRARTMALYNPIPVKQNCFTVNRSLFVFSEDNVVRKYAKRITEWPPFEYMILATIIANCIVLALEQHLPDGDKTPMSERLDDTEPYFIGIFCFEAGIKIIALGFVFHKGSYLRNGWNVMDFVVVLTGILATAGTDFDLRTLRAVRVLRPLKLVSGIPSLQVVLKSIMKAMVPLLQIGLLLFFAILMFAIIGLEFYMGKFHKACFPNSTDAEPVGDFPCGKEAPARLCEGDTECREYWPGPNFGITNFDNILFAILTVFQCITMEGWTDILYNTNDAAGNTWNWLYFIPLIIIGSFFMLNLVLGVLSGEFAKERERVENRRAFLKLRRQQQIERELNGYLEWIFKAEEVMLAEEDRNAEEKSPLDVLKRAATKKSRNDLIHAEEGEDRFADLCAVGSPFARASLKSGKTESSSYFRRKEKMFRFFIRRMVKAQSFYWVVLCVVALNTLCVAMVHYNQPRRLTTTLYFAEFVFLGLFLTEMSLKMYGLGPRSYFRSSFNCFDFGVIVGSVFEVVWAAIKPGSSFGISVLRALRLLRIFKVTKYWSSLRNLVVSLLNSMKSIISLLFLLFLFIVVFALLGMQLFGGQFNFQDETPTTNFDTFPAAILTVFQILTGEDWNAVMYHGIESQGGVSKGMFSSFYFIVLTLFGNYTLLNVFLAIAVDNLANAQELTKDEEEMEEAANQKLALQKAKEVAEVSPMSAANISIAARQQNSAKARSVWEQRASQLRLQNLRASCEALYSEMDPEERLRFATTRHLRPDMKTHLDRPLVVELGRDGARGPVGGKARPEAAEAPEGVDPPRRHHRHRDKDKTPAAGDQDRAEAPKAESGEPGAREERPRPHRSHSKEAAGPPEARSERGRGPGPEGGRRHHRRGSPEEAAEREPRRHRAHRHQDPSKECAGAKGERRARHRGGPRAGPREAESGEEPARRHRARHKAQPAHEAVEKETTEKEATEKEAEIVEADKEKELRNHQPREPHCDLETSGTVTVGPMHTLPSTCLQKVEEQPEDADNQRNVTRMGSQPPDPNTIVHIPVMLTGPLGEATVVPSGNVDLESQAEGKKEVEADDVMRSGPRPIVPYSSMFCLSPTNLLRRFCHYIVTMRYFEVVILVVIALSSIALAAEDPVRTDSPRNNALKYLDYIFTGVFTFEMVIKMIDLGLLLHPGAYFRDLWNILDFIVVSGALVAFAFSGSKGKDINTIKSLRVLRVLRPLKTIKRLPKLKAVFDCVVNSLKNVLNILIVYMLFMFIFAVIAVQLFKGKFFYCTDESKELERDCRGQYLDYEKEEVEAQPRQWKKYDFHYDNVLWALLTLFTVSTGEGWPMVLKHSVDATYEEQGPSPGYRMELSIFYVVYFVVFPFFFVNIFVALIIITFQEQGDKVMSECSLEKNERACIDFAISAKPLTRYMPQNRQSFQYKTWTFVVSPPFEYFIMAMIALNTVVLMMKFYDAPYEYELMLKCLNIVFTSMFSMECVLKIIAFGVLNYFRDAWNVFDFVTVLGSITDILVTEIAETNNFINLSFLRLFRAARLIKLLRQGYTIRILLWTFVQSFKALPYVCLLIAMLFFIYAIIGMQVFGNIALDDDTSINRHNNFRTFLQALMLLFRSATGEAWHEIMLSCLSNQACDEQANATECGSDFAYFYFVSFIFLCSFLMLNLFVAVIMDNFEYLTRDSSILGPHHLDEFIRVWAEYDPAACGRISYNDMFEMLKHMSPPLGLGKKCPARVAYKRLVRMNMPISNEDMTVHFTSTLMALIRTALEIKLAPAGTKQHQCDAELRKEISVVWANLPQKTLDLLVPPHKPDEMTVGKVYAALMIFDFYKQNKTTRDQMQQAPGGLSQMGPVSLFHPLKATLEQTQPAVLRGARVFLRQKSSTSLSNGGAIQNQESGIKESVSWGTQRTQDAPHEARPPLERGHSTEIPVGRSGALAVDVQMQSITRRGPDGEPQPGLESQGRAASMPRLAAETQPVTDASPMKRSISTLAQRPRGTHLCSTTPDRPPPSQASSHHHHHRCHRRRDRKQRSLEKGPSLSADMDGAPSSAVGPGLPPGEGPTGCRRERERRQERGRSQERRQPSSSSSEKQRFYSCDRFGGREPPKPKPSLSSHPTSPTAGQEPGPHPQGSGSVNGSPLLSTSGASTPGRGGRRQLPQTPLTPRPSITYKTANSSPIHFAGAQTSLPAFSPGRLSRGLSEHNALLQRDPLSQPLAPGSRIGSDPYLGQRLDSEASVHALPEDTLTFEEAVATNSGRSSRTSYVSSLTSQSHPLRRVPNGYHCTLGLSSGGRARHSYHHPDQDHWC
Excerpt: as §1, §2

The test system of data set [2] is Glutamate, NMDA Agonist Site. Briefly: Table 12 panel: Glutamate, NMDA Agonist. It counts as binding. The note with it: 1.0E−6, average N=2.
Excerpt: as §1, §2

A further data set deals with Histamine, H2 (Homo sapiens, UniProt P25021). Briefly: Table 12 panel: Histamine, H2. The following applies: 1.0E−6, average N=2, read-out: percentage inhibition of specific binding.
Chain of Histamine, H2 (P25021 whole entry): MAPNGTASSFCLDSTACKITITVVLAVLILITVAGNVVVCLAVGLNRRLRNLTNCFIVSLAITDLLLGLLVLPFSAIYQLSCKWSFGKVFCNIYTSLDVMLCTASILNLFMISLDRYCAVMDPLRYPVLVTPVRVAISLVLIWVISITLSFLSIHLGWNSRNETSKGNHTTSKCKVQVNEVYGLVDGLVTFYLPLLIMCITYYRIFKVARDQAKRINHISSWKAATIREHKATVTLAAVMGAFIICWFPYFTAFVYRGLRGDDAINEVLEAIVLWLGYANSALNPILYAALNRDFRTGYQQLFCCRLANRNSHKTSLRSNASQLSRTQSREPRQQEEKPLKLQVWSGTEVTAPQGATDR
Excerpt: as §1, §2

Data set [3] addresses Cholecystokinin, CCK2 (CCKB) (Homo sapiens, UniProt P32239). The data set can be described thus: Table 12 panel: CCK2. The note with it: 1.0E−6, average N=2, read-out: percentage inhibition of specific binding.
Excerpt: as §1, §2

Another data set has as its system Estrogen. Briefly: Table 12 panel: Estrogen. The class given is binding. The note with it: 1.0E−6, average N=2.
Excerpt: as §1, §2

The next data set concerns the target Dopamine Transporter (Homo sapiens, UniProt Q01959). The data set can be described thus: Table 12 panel: Dopamine Transporter. The note with it: 1.0E−6, average N=2, read-out: percentage inhibition of specific binding.
Excerpt: as §1, §2

Data set [4] deals with T1, Adrenergic, Alpha 2, Non-selective.
T1 construct: other: Adrenergic, Alpha 2; 1.0E−6; average N=2
The data set can be described thus: Table 12 panel: Adrenergic, Alpha 2. It counts as binding. The note with it: Adrenergic, Alpha 2; 1.0E−6; average N=2.

The subject of data set [5] is Muscarinic, Non-selective, Peripheral. The data set can be described thus: Table 12 panel: Muscarinic, Peripheral. The following applies: 1.0E−6, average N=2. The class given is binding.
Excerpt: as §1, §2

For data set [6], the target named is Nitric Oxide, NOS (Neuronal-Binding) (Homo sapiens, UniProt P29475). The data set can be described thus: Table 12 panel: NOS. The following applies: 1.0E−6, average N=2, read-out: percentage inhibition of specific binding.
Excerpt: as §1, §2

Data set [7] deals with Cholecystokinin, CCK1 (CCKA) (Homo sapiens, UniProt P32238). The data set can be described thus: Table 12 panel: CCK1. The note with it: 1.0E−6, average N=2, read-out: percentage inhibition of specific binding.
Chain of Cholecystokinin, CCK1 (CCKA) (P32238 whole entry): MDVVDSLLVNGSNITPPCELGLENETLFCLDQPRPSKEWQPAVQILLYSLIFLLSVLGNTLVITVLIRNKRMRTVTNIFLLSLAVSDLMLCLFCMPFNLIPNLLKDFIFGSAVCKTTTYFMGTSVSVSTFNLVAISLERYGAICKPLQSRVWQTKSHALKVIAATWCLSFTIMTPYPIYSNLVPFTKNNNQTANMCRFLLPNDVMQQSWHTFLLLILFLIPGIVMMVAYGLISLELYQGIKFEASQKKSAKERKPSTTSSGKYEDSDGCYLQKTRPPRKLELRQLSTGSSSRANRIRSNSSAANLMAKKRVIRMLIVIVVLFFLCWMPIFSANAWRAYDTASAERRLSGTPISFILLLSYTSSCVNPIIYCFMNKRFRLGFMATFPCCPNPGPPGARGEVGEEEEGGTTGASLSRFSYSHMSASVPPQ
Excerpt: as §1, §2

For data set [8], the target named is GABA A, BDZ, alpha 1 site (Homo sapiens, UniProt P14867+P18507). Briefly: Table 12 panel: GABA A, BDZ. The following applies: 1.0E−6, average N=2, read-out: percentage inhibition of specific binding.
Excerpt: as §1, §2

In a further data set the target is Oxytocin (Homo sapiens, UniProt P30559). The data set can be described thus: Table 12 panel: Oxytocin. The following applies: 1.0E−6, average N=2, read-out: percentage inhibition of specific binding.
Chain of Oxytocin (P30559 whole entry): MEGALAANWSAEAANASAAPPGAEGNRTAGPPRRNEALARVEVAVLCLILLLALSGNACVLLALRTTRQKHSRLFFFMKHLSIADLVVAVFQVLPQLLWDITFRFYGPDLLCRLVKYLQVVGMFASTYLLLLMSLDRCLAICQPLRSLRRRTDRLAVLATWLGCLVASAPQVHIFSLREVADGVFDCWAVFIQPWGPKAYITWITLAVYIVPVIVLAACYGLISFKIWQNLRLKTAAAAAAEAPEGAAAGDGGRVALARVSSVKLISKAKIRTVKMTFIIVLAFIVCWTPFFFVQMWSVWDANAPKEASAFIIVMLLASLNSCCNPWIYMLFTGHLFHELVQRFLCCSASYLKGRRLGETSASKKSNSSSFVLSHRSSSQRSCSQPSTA
Excerpt: as §1, §2

The next data set deals with hERG (Homo sapiens, UniProt Q12809). Briefly: in vitro. The note with it: pH 7.4.
Chain of hERG (Q12809 whole entry): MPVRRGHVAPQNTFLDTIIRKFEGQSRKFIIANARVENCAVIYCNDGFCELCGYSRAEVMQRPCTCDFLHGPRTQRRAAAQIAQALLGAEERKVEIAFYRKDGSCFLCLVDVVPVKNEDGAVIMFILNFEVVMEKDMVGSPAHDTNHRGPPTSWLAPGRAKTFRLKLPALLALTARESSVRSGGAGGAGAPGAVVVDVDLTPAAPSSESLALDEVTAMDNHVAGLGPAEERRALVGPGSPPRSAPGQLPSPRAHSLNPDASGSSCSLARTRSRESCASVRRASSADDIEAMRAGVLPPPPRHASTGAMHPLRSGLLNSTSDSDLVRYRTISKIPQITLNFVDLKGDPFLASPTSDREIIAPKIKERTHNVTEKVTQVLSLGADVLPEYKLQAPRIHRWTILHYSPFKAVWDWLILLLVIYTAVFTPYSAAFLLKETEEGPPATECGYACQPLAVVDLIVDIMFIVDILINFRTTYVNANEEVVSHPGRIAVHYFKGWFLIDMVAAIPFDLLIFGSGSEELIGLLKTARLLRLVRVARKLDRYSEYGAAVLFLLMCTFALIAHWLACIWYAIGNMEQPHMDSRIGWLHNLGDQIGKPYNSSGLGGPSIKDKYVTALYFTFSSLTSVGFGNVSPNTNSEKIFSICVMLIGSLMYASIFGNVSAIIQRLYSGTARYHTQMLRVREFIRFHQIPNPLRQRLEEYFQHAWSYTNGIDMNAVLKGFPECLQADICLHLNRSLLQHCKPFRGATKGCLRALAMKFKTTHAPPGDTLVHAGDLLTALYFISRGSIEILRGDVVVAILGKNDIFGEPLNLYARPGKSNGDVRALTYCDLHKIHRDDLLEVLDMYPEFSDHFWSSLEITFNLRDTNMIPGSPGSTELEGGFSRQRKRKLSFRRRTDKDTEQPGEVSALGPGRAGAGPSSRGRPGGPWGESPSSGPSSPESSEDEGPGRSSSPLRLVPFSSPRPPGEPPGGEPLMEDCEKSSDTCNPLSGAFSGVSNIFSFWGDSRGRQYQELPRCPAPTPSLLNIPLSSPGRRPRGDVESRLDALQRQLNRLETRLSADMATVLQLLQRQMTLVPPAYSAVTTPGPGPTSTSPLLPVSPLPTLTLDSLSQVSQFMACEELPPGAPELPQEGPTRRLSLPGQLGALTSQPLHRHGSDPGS
Data set [9] can be described thus: Plasma pharmacokinetics in cynomolgus monkeys. It counts as in vivo. The note with it: cynomolgus monkey, 3 mg/kg. The text has this:
The following pharmacokinetic parameters are computed from the individual plasma concentrations of the modified antihistamine compound using a noncompartmental approach and appropriate validated pharmacokinetic software (e.g., WinNonlin Professional). Concentration values reported as BLQ are set to zero. If concentration data are available, interim calculations are done (non-QC.d data) between periods if possible.
Dose proportionality following study medication is explored by analyzing natural log-transformed pharmacokinetic variables AUC(0-t), AUC(0-inf), and Cmax with a linear model including the natural log-transformed dose as covariates. […] The following parameters were estimated: • Cmax Maximum plasma concentration. • Tmax Time to maximum concentration. • Cmax and Tmax were reported directly from the concentration-time data. • AUC0-T Area under the plasma concentration-time curve from time […] to the last time point with measurable concentrations, estimated bylinear trapezoidal rule. • AUC0-00 Area under the plasma concentration-time curve extrapolated to infinity, calculated using the formula: AUC0-00=AUC0-1+C0/λ0 • Where Ct is the last measurable concentration in plasma and λz is the terminal phase elimination rate constant estimated using log-linear regression during the terminal elimination phase. […]

A further data set concerns Crl: CD(SD)IGS BR rats. Briefly: Acute rat study (toxicity and MTD, oral gavage, 5 days). It counts as in vivo. The protocol: The purpose of this study was to evaluate the toxicity and maximum tolerated dose (MTD) of the test articles when given via oral gavage to rats. Male Crl: CD®(SD)IGS BR rats (3/group) were assigned to 5 groups. At initiation of dosing, animals were approximately 7 weeks old with body weights ranging from 172 to 206 g. Each group received either 50, 100, 150, 200, or 250 mg/kg of HY2901 once daily for 5 days. All surviving animals were sacrificed on Day 6. Assessment of toxicity was based on mortality, clinical observations, and body weight data.

Setting [10] is: 50 to 250 mg/kg once daily for 5 days.

Turning to `CC(CC(=O)O)N1CCC(=C2c3ccc(F)cc3COc3ccccc32)CC1` (stereo not shown) [Compound 37], the inhibition (usually the drop in the measured response relative to a control, in per cent) at 1 µM in data set [1] is -12.5%; on Angiotensin II, AT2, 1.51%; at Calcium Channel, Type N, 3.45%; on Histamine, H2, 0.8%; in [3] it was 3.98%; at Dopamine Transporter, 2.14%. Further, the inhibition at 1 µM in data set [6] is 17.2%; in [7] it was 8.92%; in data set [8] it was -7.13%; at Oxytocin, -5.82%. Also, the “percentage inhibition of specific binding” value in the data set on Serotonin, Non-selective is 21.45%; in [2], −5.56%; in the data set on Estrogen it was −4.68%; in data set [4], −3.79%; in data set [5], 5.37%.
For `CC(C)(CN1CCC(=C2c3ccc(F)cc3COc3ccccc32)CC1)C(=O)O` [Compound 49a], on hERG, the IC50 (usually the concentration needed to halve the response being measured) was found to be 93 µM and the inhibition at 0.01 µM was 10%. Besides, the half-life (commonly the time in which the quantity being followed falls by half) in data set [9] is 4.4 h. In addition, in [9] (after oral administration), the time of peak concentration (Tmax) (usually the time from dosing to the highest level) amounted to 1.5 h. Also, in the data set with Crl: CD(SD)IGS BR rats (setting [10]), the ataxia result is “dose-response relationship was observed in the incidence and duration of ataxia”; the “hypoactivity / apparent sleep” value is “Hypoactivity was observed in all rats”. Moreover, in the data set with Crl: CD(SD)IGS BR rats (two 250 mg/kg rats, relative to other rats), the “Day 6 body weights” value is “slightly decreased”.
